Laboratory results published in PubChem BioAssay (NCI).
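Briefly, cells in 96-well plates were exposed to five compound concentrations for 48 h, and endpoints were estimated by linear interpolation. Abbreviation: GI50, concentration required for 50% inhibition of growth. TGI denotes the concentration required for complete inhibition of growth.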

How the values were obtained:
Test in all cases: growth of human tumour cells (NCI), 48 h
[1] = test system: HL-60(TB) leukemia
[2] = test system: HCC-2998 colon
[3] = test system: SW-620 colon
[4] = test system: SNB-19 CNS
[5] = test system: CCRF-CEM leukemia
[6] = test system: SK-OV-3 ovarian
[7] = test system: RXF 393 renal
[8] = test system: EKVX NSCLC
[9] = test system: HT29 colon
[10] = test system: A549 NSCLC
[11] = test system: NCI/ADR-RES ovarian
[12] = test system: LOX IMVI melanoma
[13] = test system: IGROV1 ovarian
[14] = test system: DU-145 prostate
[15] = test system: SK-MEL-5 melanoma
[16] = test system: M14 melanoma
[17] = test system: KM12 colon
[18] = test system: CAKI-1 renal
[19] = test system: OVCAR-4 ovarian
[20] = test system: ACHN renal
[21] = test system: SF-295 CNS
[22] = test system: MCF7 breast
[23] = test system: PC-3 prostate
[24] = test system: UO-31 renal
[25] = test system: SN12C renal
[26] = test system: HOP-62 NSCLC
[27] = test system: NCI-H460 lung
[28] = test system: NCI-H226 lung
[29] = test system: NCI-H522 lung
[30] = test system: SK-MEL-28 melanoma
[31] = test system: UACC-62 melanoma
[32] = test system: 786-0 renal
[33] = test system: HOP-92 NSCLC
[34] = test system: SR leukemia
[35] = test system: OVCAR-5 ovarian
[36] = test system: UACC-257 melanoma
[37] = test system: NCI-H23 lung
[38] = test system: A498 renal
[39] = test system: TK-10 renal
[40] = test system: HS 578T breast
[41] = test system: OVCAR-8 ovarian
[42] = test system: SK-MEL-2 melanoma
[43] = test system: MDA-MB-231 breast
[44] = test system: MOLT-4 leukemia
[45] = test system: T-47D breast
[46] = test system: SF-268 CNS
[47] = test system: HCT-15 colon
[48] = test system: OVCAR-3 ovarian
[49] = test system: HCT-116 colon
[50] = test system: MDA-MB-435
[51] = test system: K-562 leukemia
[52] = test system: RPMI-8226 leukemia
[53] = test system: U251 CNS
[54] = test system: SF-539 CNS
[55] = test system: SNB-75 CNS
[56] = test system: MALME-3M melanoma
[57] = test system: COLO 205 colon

SMILES: Cc1ccnc2[nH]c(-c3cccc(Cl)c3)cc(=O)c12
- TGI [1]: 0.0611 µM
- TGI [2]: > 43 µM
- TGI [3]: > 100 µM
- TGI [4]: > 100 µM
- TGI [5]: > 100 µM
- TGI [6]: > 100 µM
- TGI [7]: > 100 µM
- TGI [8]: > 100 µM
- TGI [9]: > 100 µM
- TGI [10]: > 100 µM
- TGI [11]: > 100 µM
- TGI [12]: > 100 µM
- TGI [13]: > 100 µM
- TGI [14]: > 100 µM
- TGI [15]: > 35.7 µM
- TGI [16]: > 100 µM
- TGI [17]: > 47.8 µM
- TGI [18]: > 47.8 µM
- TGI [19]: > 100 µM
- TGI [20]: > 100 µM
- TGI [21]: > 100 µM
- TGI [22]: > 100 µM
- TGI [23]: > 100 µM
- TGI [24]: > 70.2 µM
- TGI [25]: > 100 µM
- TGI [26]: > 74.8 µM
- TGI [27]: > 100 µM
- TGI [28]: > 100 µM
- TGI [29]: > 100 µM
- TGI [30]: > 100 µM
- TGI [31]: > 100 µM
- TGI [32]: > 100 µM
- TGI [33]: > 100 µM
- TGI [34]: > 100 µM
- TGI [35]: > 100 µM
- TGI [36]: > 100 µM
- TGI [37]: > 100 µM
- TGI [38]: > 100 µM
- TGI [39]: > 100 µM
- TGI [40]: > 100 µM
- TGI [41]: > 100 µM
- TGI [42]: > 100 µM
- TGI [43]: 0.0861 µM
- TGI [44]: > 50 µM
- TGI [45]: > 100 µM
- TGI [46]: > 100 µM
- TGI [47]: > 100 µM
- TGI [48]: 0.162 µM

SMILES: Nc1nnc2cc(Cl)ccc2n1
- GI50 [2]: > 100 µM
- TGI [2]: > 100 µM
- GI50 [3]: > 100 µM
- TGI [3]: > 100 µM
- GI50 [4]: > 100 µM
- TGI [4]: > 100 µM
- GI50 [5]: > 100 µM
- TGI [5]: > 100 µM
- GI50 [6]: > 100 µM
- TGI [6]: > 100 µM
- GI50 [7]: > 100 µM
- TGI [7]: > 100 µM
- GI50 [8]: 23.6 µM
- TGI [8]: > 100 µM
- GI50 [10]: 73.2 µM
- TGI [10]: > 100 µM
- GI50 [11]: > 100 µM
- TGI [11]: > 100 µM
- GI50 [12]: > 100 µM
- TGI [12]: > 100 µM
- GI50 [13]: 34.3 µM
- TGI [13]: > 100 µM
- GI50 [49]: > 100 µM
- TGI [49]: > 100 µM
- GI50 [14]: > 100 µM
- TGI [14]: > 100 µM
- GI50 [15]: > 100 µM
- TGI [15]: > 100 µM
- GI50 [16]: > 100 µM
- TGI [16]: > 100 µM
- GI50 [17]: > 100 µM
- TGI [17]: > 100 µM
- GI50 [18]: > 100 µM
- TGI [18]: > 100 µM
- GI50 [50]: > 100 µM
- TGI [50]: > 100 µM
- GI50 [19]: > 100 µM
- TGI [19]: > 100 µM
- GI50 [20]: > 100 µM
- TGI [20]: > 100 µM
- GI50 [51]: > 100 µM
- TGI [51]: > 100 µM
- GI50 [21]: 74 µM
- TGI [21]: > 100 µM
- GI50 [22]: > 100 µM
- TGI [22]: > 100 µM
- GI50 [23]: 24.4 µM
- TGI [23]: > 100 µM
- GI50 [52]: > 100 µM
- TGI [52]: > 100 µM
- GI50 [24]: 30.2 µM
- TGI [24]: > 100 µM
- GI50 [25]: 16 µM
- TGI [25]: > 100 µM
- GI50 [26]: > 100 µM
- TGI [26]: > 100 µM
- GI50 [27]: > 100 µM
- TGI [27]: > 100 µM
- GI50 [28]: > 100 µM
- TGI [28]: > 100 µM
- GI50 [30]: > 100 µM
- TGI [30]: > 100 µM
- GI50 [31]: > 100 µM
- TGI [31]: > 100 µM
- GI50 [32]: > 100 µM
- TGI [32]: > 100 µM
- GI50 [53]: > 100 µM
- TGI [53]: > 100 µM
- GI50 [33]: 3.56 µM
- TGI [33]: 47.6 µM
- GI50 [34]: > 100 µM
- TGI [34]: > 100 µM
- GI50 [35]: > 100 µM
- TGI [35]: > 100 µM
- GI50 [36]: > 100 µM
- TGI [36]: > 100 µM
- GI50 [37]: > 100 µM
- TGI [37]: > 100 µM
- GI50 [38]: > 100 µM
- TGI [38]: > 100 µM
- GI50 [54]: > 100 µM
- TGI [54]: > 100 µM
- GI50 [55]: 9.06 µM
- TGI [55]: > 100 µM
- GI50 [40]: 24.6 µM
- TGI [40]: > 100 µM
- GI50 [56]: > 100 µM
- TGI [56]: > 100 µM
- GI50 [41]: > 100 µM
- TGI [41]: > 100 µM
- GI50 [43]: > 100 µM
- TGI [43]: > 100 µM
- GI50 [44]: > 100 µM
- TGI [44]: > 100 µM
- GI50 [45]: > 100 µM
- TGI [45]: > 100 µM
- GI50 [46]: > 100 µM
- TGI [46]: > 100 µM
- GI50 [47]: > 100 µM
- TGI [47]: > 100 µM
- GI50 [48]: > 100 µM
- TGI [48]: > 100 µM
- GI50 [57]: > 100 µM
- TGI [57]: > 100 µM

SMILES: COc1cc(OC)c(OC)cc1/C=C\c1nccc2ccccc12
- TGI [1]: 73.2 µM
- TGI [3]: 83.4 µM
- TGI [4]: 61.4 µM
- TGI [5]: > 100 µM
- TGI [6]: > 100 µM
- TGI [7]: 39 µM
- TGI [8]: 89.7 µM
- TGI [10]: > 100 µM
- TGI [11]: > 100 µM
- TGI [13]: 87 µM
- TGI [49]: 33.4 µM
- TGI [14]: 34.4 µM
- TGI [15]: 29.5 µM
- TGI [16]: 31.1 µM
- TGI [17]: 33.5 µM
- TGI [18]: 68.3 µM
- TGI [19]: > 100 µM
- TGI [51]: > 100 µM
- TGI [21]: 56.1 µM
- TGI [23]: 60.2 µM
- TGI [52]: 59.2 µM
- TGI [24]: 64.1 µM
- TGI [30]: 74.7 µM
- TGI [53]: 65.5 µM
- TGI [33]: 32.9 µM
- TGI [34]: > 100 µM
- TGI [35]: 98.3 µM
- TGI [37]: 51.7 µM
- TGI [39]: 88.9 µM
- TGI [55]: 50.6 µM
- TGI [40]: 94.3 µM
- TGI [56]: > 100 µM
- TGI [41]: 78.9 µM
- TGI [44]: 95.8 µM
- TGI [45]: 80.4 µM
- TGI [46]: 58.8 µM
- TGI [57]: 38 µM
